The values that follow come from patent US7998978B2 (Pfizer Inc., priority 2006, dated 2011).

The target of the first assay is T1, JNK1α1 (Homo sapiens, UniProt P45983).
T1 construct: catalytic domain containing amino acids 1-364 and N-terminal hexahistidine tag; hexahistidine (His6) (N); made in house; host or cells: E. coli BL21 (DE3)
T1 sequence (P45983 1-364): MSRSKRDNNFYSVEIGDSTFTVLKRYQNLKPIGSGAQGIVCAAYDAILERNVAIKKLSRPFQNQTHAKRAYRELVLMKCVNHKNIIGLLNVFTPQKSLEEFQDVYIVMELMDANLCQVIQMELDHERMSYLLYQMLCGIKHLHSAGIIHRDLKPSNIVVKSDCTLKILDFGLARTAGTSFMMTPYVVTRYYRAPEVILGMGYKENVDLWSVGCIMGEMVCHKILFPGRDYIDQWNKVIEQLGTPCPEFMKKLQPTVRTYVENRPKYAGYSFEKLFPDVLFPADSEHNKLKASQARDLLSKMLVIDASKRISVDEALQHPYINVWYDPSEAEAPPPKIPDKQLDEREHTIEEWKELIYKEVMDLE
Kind of assay: Coupled spectrophotometric (PK/LDH) JNK1α1 assay: % inhibition and Ki determination. Type of assay: biochemical. Particulars: @1 uM; read-out: % Inhibition JNK-1. As to the method:
% Inhibition and Ki Determination
A coupled spectrophotometric assay, coupling JNK1α1 activity to the oxidation of β-NADH to NAD+ through the action of pyruvate kinase (PK) and lactic dehydrogenase (LDH), was used to determine the potency (percent inhibition at 1 or 10 μM or Ki) of compounds against JNK1α1 (Genbank Accession Number: L26318). […] The reaction was monitored by following the decrease in absorbance at 340 nm. The initial reaction rate was determined by the slope of the change in absorbance. To calculate percent inhibition the rate of the reaction in the presence of 1 or 10 μM compound was compared to the rate of the reaction with only DMSO multiplied by 100 percent. Note, the background rate of the above reaction in the presence of 10 μM PHA-00738186 was subtracted from all rates. […] Y=(−X+Eo−(Ki*(1+A/Km))+((X−Eo+(Ki*(1+A/Km)))^2+4*Eo*(Ki*(1+A/Km)))^0.5)*(Vm*A/(Km+A)/(2*Eo)) Formula: • Parameters: Eo, Ki, A, Km, Vo • Y is initial reaction velocity; • X is inhibitor concentration; • A is [ATP]; • Ki is inhibition constant; • Vm is Vmax; • Eo is total (initial) enzyme concentration; • Km is ATP Km;
The compounds were prepared in 100% DMSO at a 40× concentration. For percent inhibition experiments this would be 400 or 40 μM for 10 and 1 μM final concentration, respectively. For the Ki determination 3× serial dilutions were made starting at 4 mM (100 μM at 1×) in DMSO. A total of 11 concentrations were used for the analysis. The compounds were added to the reaction plate first. Next, a solution containing the HEPES, MgCl2, DTT, peptide substrate, NADH, PEP, PK/LDH enzyme, and JNK1α1—364nHis enzyme was added to the assay plate. The plate was incubated at room temperature for 15 minutes. Then the plate was warmed to 30° C. for 5 minutes. The reaction was initiated with the addition of ATP. The reaction was run in a plate reader at 30° C. for 20 minutes with absorbance readings made about every 10 seconds.
The column with “#” heading refers to compound number as exemplified in the Examples section. The column with “Ki” heading refers to Ki (in nM). The column with “% Inhibition” heading refers to percent inhibition of JNK-1 at 1 μM or 10 μM (in %) unless otherwise stated. ND refers to no data was taken.
As for `COCCOc1cccc2cnc(N[C@H]3CC[C@H](O)CC3)nc12` [Example 256, trans-4-{[8-(2-methoxyethoxy)quinazolin-2-yl]amino}cyclohexanol], the inhibition at 1 µM is 29%.

Regarding `Cc1nnc(CCNC(=O)c2cccc3cnc(N[C@H]4CC[C@H](O)CC4)nc23)o1` [Example 522, 2-[(trans-4-hydroxycyclohexyl)amino]-N-[2-(5-methyl-1,3,4-oxadiazol-2-yl)ethyl]quinazoline-8-carboxamide], the inhibition at 1 µM was determined as 18%.

Regarding `O[C@H]1CC[C@H](Nc2ncc3cccc(OCCN4CCCCC4)c3n2)CC1` [Example 255, trans-4-{[8-(2-piperidin-1-ylethoxy)quinazolin-2-yl]amino}cyclohexanol], the inhibition at 1 µM amounted to 12%.

As for `CN1CCCC(COc2ccc3cnc(N[C@H]4CC[C@H](O)CC4)nc3c2)C1` (stereo partly drawn) [Example 270, trans-4-({7-[(1-methylpiperidin-3-yl)methoxy]quinazolin-2-yl}amino)cyclohexanol], the inhibition at 1 µM is 40%.

As to `Cc1cc(NC(=O)c2cccc3cnc(N[C@H]4CC[C@H](O)CC4)nc23)nc(C)n1` [Example 322, N-(2,6-dimethylpyrimidin-4-yl)-2-[(trans-4-hydroxycyclohexyl)amino]quinazoline-8-carboxamide], the inhibition at 1 µM was 18%.

Regarding `CN(C)c1ncccc1NC(=O)c1cccc2cnc(N[C@H]3CC[C@H](O)CC3)nc12` [Example 319, N-[2-(dimethylamino)pyridin-3-yl]-2-[(trans-4-hydroxycyclohexyl)amino]quinazoline-8-carboxamide], the inhibition at 1 µM came to 27%.

Take `CN1CCC(Oc2ccc3cnc(N[C@H]4CC[C@H](O)CC4)nc3c2)CC1` [Example 271, trans-4-({7-[(1-methylpiperidin-4-yl)oxy]quinazolin-2-yl}amino)cyclohexanol]: the inhibition at 1 µM was found to be 41%.

Take `O=C1CN2C[C@@H](Oc3ccc4cnc(N[C@H]5CC[C@H](O)CC5)nc4c3)CC[C@H]2CN1` [Example 287, (7S,9aS)-7-({2-[(trans-4-hydroxycyclohexyl)amino]quinazolin-7-yl}oxy)hexahydro-2H-pyrido[1,2-a]pyrazin-3(4H)-one]: the inhibition at 1 µM was 62%.

The assay is the same for the next values; noted with them: @10 uM; read-out: % Inhibition JNK-1.
In the case of `O=C(Nc1ccnn1Cc1ccccc1)c1cccc2cnc(N[C@H]3CC[C@H](O)CC3)nc12` [Example 311, N-(1-benzyl-1H-pyrazol-5-yl)-2-[(trans-4-hydroxycyclohexyl)amino]quinazoline-8-carboxamide], the inhibition at 10 µM came out at 36%.

As for `Cc1nnc(C(C)NC(=O)c2cccc3cnc(N[C@H]4CC[C@H](O)CC4)nc23)[nH]1` (stereo partly drawn) [Example 510, 2-[(trans-4-hydroxycyclohexyl)amino]-N-[1-(5-methyl-4H-1,2,4-triazol-3-yl)ethyl]quinazoline-8-carboxamide], the inhibition at 10 µM came to 25%.

The assay is the same for the next values; noted with them: JNK-1.
On to `CCN[C@H]1CC[C@H](Nc2ncc3cccc(OC4CCOCC4)c3n2)CC1` [Example 190, trans-N-ethyl-N′-[8-(tetrahydro-2H-pyran-4-yloxy)quinazolin-2-yl]cyclohexane-1,4-diamine], for which the Ki was determined as 342 nM.

The molecule `Fc1ccc2cnc(NC3CCCCC3)nc2c1` [Example 148] came in with a Ki of 456 nM.

In the case of `O=C(NC1CCCCC1O)c1ccc2cnc(N[C@H]3CC[C@H](O)CC3)nc2c1` (stereo partly drawn) [Example 342, N-(2-hydroxycyclohexyl)-2-[(trans-4-hydroxycyclohexyl)amino]quinazoline-7-carboxamide], the Ki was found to be 839 nM.

Turning to `C[C@@H](CO)NC(=O)c1cccc2cnc(N[C@H]3CC[C@H](NS(C)(=O)=O)CC3)nc12` [Example 131, N-[(1S)-2-hydroxy-1-methylethyl]-2-({trans-4-[(methylsulfonyl)amino]cyclohexyl}amino)quinazoline-8-carboxamide], the affinity, expressed as Ki, was 77 nM.

In the case of `CC(C)(CO)NC(=O)c1cccc2cnc(N[C@H]3CC[C@H](O)CC3)nc12` [Example 104, 2-[(trans-4-hydroxycyclohexyl)amino]-N-(2-hydroxy-1,1-dimethylethyl)quinazoline-8-carboxamide], the affinity, expressed as Ki, was 66 nM.

`O=C(NC(CO)c1ccccc1)c1ccc2cnc(NC3CCCC3)nc2c1` (stereo not shown) [Example 379, 2-(cyclopentylamino)-N-(2-hydroxy-1-phenylethyl)quinazoline-7-carboxamide] registered a Ki of 177 nM.

With `COCCNC(=O)c1cccc2cnc(N[C@H]3CC[C@H](O)CC3)nc12` [Example 109, 2-[(trans-4-hydroxycyclohexyl)amino]-N-(2-methoxyethyl)quinazoline-8-carboxamide], the affinity corresponds to a Ki of 678 nM.

Take `c1cc(OC2CCOCC2)c2nc(NC3CCOCC3)ncc2c1` [Example 175, N-(tetrahydro-2H-pyran-4-yl)-8-(tetrahydro-2H-pyran-4-yloxy)quinazolin-2-amine]: the Ki is 880 nM.

On to `CC(C)C(=O)N[C@H]1CC[C@H](Nc2ncc3cccc(OC4CCOC4)c3n2)CC1` (stereo partly drawn) [Example 186, 2-methyl-N-(trans-4-{[8-(tetrahydrofuran-3-yloxy)quinazolin-2-yl]amino)cyclohexyl)propanamide], for which the affinity, expressed as Ki, was 607 nM.

Molecule `CS(=O)(=O)N[C@H]1CC[C@H](Nc2ncc3cccc(OC4CCOC4)c3n2)CC1` (stereo partly drawn) [Example 187, N-(trans-4-{[8-(tetrahydrofuran-3-yloxy)quinazolin-2-yl]amino}cyclohexyl)methanesulfonamide] displayed a Ki of 414 nM.

On to `O=C(NCc1ccccc1)c1cccc2cnc(N[C@H]3CC[C@H](O)CC3)nc12` [Example 124, N-benzyl-2-[(trans-4-hydroxycyclohexyl)amino]quinazoline-8-carboxamide], for which the Ki is 410 nM.

For `CC(C)(CO)NC(=O)c1ccc2cnc(N[C@H]3CC[C@H](O)CC3)nc2c1` [Example 352, 2-[(trans-4-hydroxycyclohexyl)amino]-N-(2-hydroxy-1,1-dimethylethyl)quinazoline-7-carboxamide], the inhibition constant Ki came out at 1100 nM.

`CC(C)Nc1ncc2ccc(C(=O)N[C@H](CO)c3ccccc3)cc2n1` [Example 394, N-[(1S)-2-hydroxy-1-phenylethyl]-2-(isopropylamino)quinazoline-7-carboxamide] gave a Ki of 391 nM.

In turn, `O=C(c1cccc2cnc(N[C@H]3CC[C@H](O)CC3)nc12)N1CCOCC1` [Example 102, trans-4-{[8-(morpholin-4-ylcarbonyl)quinazolin-2-yl]amino}cyclohexanol] registered a Ki of 992 nM.

`C[C@@H](CO)NC(=O)c1cccc2cnc(N[C@H]3CC[C@H](O)CC3)nc12` [Example 122, 2-[(trans-4-hydroxycyclohexyl)amino]-N-[(1S)-2-hydroxy-1-methylethyl]quinazoline-8-carboxamide] showed a Ki of 82 nM.

Turning to `O=C(NCc1ccccc1)c1ccc2cnc(N[C@H]3CC[C@H](O)CC3)nc2c1` [Example 62, N-benzyl-2-[(trans-4-hydroxycyclohexyl)amino]quinazoline-7-carboxamide], the Ki was 432 nM.

Molecule `O=C(NCCN1CCOCC1)c1ccc2cnc(N[C@H]3CC[C@H](O)CC3)nc2c1` [Example 61, 2-[(trans-4-hydroxycyclohexyl)amino]-N-(2-morpholin-4-ylethyl)quinazoline-7-carboxamide] came in with a Ki of 525 nM.

On to `CC(C)(CO)NC(=O)c1cccc2cnc(N[C@H]3CC[C@H](NS(C)(=O)=O)CC3)nc12` [Example 132, N-(2-hydroxy-1,1-dimethylethyl)-2-({trans-4-[(methylsulfonyl)amino]cyclohexyl}amino)quinazoline-8-carboxamide], for which the affinity corresponds to a Ki of 78 nM.

Turning to `Cc1oc(-c2ccccc2)nc1CC(=O)Nc1cc2cc(-c3cn[nH]c3)ccc2cn1` [Example 51, 2-(5-methyl-2-phenyl-1,3-oxazal-4-yl)-N-[6-(1H-pyrazol-4-yl)isoquinolin-3-yl]acetamide], the Ki worked out at 8 nM.

Molecule `O=C(NC(CO)c1ccccc1F)c1ccc2cnc(N[C@H]3CC[C@H](O)CC3)nc2c1` (stereo partly drawn) [Example 98, N-[1-(2-fluorophenyl)-2-hydroxyethyl]-2-[(trans-4-hydroxycyclohexyl)amino]quinazoline-7-carboxamide] yielded a Ki of 33 nM.

On to `CC(C)(CO)NC(=O)c1ccc2cnc(NC3CCCCC3)nc2c1` [Example 413, 2-(cyclohexylamino)-N-(2-hydroxy-1,1-dimethylethyl)quinazoline-7-carboxamide], for which affinity was put at a Ki of 1270 nM.

Usually inhibition stands for the change of the read-out against control, counted positive when it falls. What is called Ki is the equilibrium dissociation constant of an inhibitor or competing ligand from its target.
